The target of the test is RAF proto-oncogene serine/threonine-protein kinase [Y340E,Y341E] (Human, UniProt P04049, Y340E/Y341E). The test is described as follows: Raf Activity Assay. Conditions: pH 7.5; 25 °C.

In BindingDB's records for patent US9694016 (Novartis AG, 2017) one finds IC50 data, which are given here for 16 compounds.

The IC50 is the concentration at which inhibition is half-maximal. Low readings indicate higher potency, high ones lower potency.

Molecules are shown by their SMILES.

Chain of RAF proto-oncogene serine/threonine-protein kinase [Y340E,Y341E] (P04049 whole entry Y340E/Y341E): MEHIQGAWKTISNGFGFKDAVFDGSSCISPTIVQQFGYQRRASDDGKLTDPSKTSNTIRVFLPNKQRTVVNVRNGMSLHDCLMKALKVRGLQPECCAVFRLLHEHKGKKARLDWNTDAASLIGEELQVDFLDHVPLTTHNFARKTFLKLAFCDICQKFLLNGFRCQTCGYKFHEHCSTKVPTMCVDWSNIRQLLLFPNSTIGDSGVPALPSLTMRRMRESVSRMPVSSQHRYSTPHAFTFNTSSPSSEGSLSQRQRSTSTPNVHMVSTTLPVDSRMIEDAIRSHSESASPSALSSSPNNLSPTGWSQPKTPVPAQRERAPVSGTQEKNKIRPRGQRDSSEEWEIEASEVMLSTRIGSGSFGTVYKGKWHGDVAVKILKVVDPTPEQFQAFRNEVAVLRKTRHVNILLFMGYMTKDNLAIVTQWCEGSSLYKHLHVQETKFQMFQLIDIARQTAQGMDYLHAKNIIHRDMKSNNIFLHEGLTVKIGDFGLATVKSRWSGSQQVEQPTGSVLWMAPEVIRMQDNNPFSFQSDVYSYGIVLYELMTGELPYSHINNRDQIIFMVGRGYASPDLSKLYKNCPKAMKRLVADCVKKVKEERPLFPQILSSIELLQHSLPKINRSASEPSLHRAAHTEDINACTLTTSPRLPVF
Experimental: The plate was incubated for 60 minutes at room temperature. The Raf kinase activity reaction was started by the addition of 5 mL per well of 2xATP diluted in assay buffer. […] The additions were carried out under dark conditions to protect the detection beads from light. A lid was placed on top of the plate and incubated for 1 hour at room temperature, then the luminescence was read on a PerkinElmer Envision instrument.

`Cc1ncc(NC(=O)c2ccnc(C(C)(C)C#N)c2)cc1-c1cnc(OC(F)F)c(N2CCOCC2)c1` [US9694016, 225] gave a half-maximal inhibitory concentration (IC50) of 3.9 nM.
Compound `Cc1ccc(NC(=O)c2ccnc(C(C)(C)C#N)c2)cc1-c1cc(N2CCOCC2)nc(OC2CNC2)n1` [US9694016, 777] returned a half-inhibitory concentration (IC50) of 0.08 nM.
In turn, `Cc1ncc(NC(=O)c2cnnc(C(C)(C)C#N)c2)cc1-c1cc(N2CCOCC2)c(OC2CCOCC2)nn1` [US9694016, 635] displayed an IC50 of 6.6 nM.
For the compound `CNC(=O)C1CN(c2cc(-c3cc(NC(=O)c4cccc(C(F)(F)F)c4)cnc3C)nn3ccnc23)CCO1` (stereo unspecified) [US9694016, 874], the IC50 turned out to be 3.4 nM.
`Cc1ccc(NC(=O)c2ccnc(C3CC3)c2)cc1-c1cc(N2CCOCC2)c(=O)n(C)n1` [US9694016, 656]: it took 0.3 nM to reach half-maximal inhibition (IC50).
As for `CCOc1nnc(-c2cc(NC(=O)c3ccnc(C(F)(F)F)c3)ccc2C)cc1N1CCOCC1` [US9694016, 566], the figure is 0.2 nM; as for `Cn1cc(-c2cc(NC(=O)c3ccnc(C(C)(F)F)c3)ccc2C#N)cc(N2CCOCC2)c1=O` [US9694016, 416], 200 nM.
In turn, `CCNc1nc(-c2cc(NC(=O)c3cccc(S(C)(=O)=O)c3)ccc2C)cc(N2CCOCC2)n1` [US9694016, 704] had an IC50 of 0.08 nM.
With `Cc1ncc(NC(=O)c2cc(CN(C)C)cc(C(F)(F)F)c2)cc1-c1cc(N2CCOCC2)c(=O)n(C)c1` [US9694016, 401] the figure was 12 nM; with `Cc1ncc(NC(=O)c2ccnc(C(C)(F)F)c2)cc1-c1cnc(C#N)c(N2CCOCC2)c1` [US9694016, 250], 0.8 nM; with `Cc1ncc(NC(=O)c2ccnc(C3(C#N)CC3)c2)cc1-c1cnc(OC2CCOCC2)c(N2CCOCC2)c1` [US9694016, 940], 1.33 nM.
With `CCNc1nc(-c2cc(NC(=O)c3ccnc(C(C)(F)F)c3)cnc2C)cc(N2CCOCC2)n1` [US9694016, 725] the figure was 1.2 nM.
The compound `CCOc1nnc(-c2cc(NC(=O)c3cccc(C(F)F)c3)cnc2C)cc1N1CCOCC1` [US9694016, 619] showed an IC50 of 0.5 nM.
Compound `COc1nnc(-c2cc(NC(=O)c3ccnc(C(C)(C)F)c3)cnc2C)cc1N1CCOCC1` [US9694016, 608] showed a concentration for half-maximal inhibition (IC50) of 2 nM.
With `CCOc1nc(-c2cc(NC(=O)c3ccnc(C(C)C)c3)ccc2C)cc(N2CCOCC2)n1` [US9694016, 763] the figure was 0.2 nM; with `Cc1ncc(NC(=O)c2ccnc(C(C)(F)F)c2)cc1-c1cc(N2CCOC[C@@H]2C)n(C)c(=O)c1` [US9694016, 526], 9.4 nM.
